SMILES strings stand for the structures. pIC50: −log10 of the molar value. Starred links: 1 amine or outer side, 2 acyl side, 3 side chain; linkers in the order of their positions; H or OH if unused. Non-standard residues stand in square brackets, D forms with d. Residues, ends and D or L forms follow the SMILES beside them. X1 = O=C(CN(C[C@H](O)[C@@H](O)[C@H](O)[C@H](O)CO)[*:1])[*:2]; d1Nal = N[C@H](Cc1cccc2ccccc12)C(=O)O; dBta = N[C@H](Cc1csc2ccccc12)C(=O)O; Chg = N[C@H](C(=O)O)C1CCCCC1

From patent publication US10344054B2, “Angiotensin-1-receptor antagonists” (Ferring B.V., priority 2016, dated 2019) come the findings set out here.

Test [1] concerns the target T1, hAT1R (Homo sapiens, UniProt P30556).
T1 sequence (P30556 1-359): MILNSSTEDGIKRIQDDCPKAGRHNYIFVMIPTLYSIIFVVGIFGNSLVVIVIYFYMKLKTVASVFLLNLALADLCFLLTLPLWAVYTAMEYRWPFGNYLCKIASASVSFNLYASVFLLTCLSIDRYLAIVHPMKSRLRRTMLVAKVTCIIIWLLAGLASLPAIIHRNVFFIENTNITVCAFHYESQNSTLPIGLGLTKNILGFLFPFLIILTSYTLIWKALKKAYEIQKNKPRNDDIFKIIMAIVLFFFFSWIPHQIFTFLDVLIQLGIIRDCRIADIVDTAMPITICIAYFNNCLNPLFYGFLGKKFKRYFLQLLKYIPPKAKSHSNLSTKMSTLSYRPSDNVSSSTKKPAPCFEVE
The test is described as follows: FLIPR calcium flux assay, Part I: agonist activity. Format: cell-based. To be noted: ChanTest hAT1R stable cells; % MPE, percent of the maximal possible effect; read-out: hAT1R Agonist Efficacy Agonist (%) Ave.

The target in test [2] is T1, hAT1R. In words: FLIPR calcium flux assay, Part II: antagonist activity against Angiotensin II. As to hAT1R Antagonist Efficacy Antag (%) Ave: Angiotensin II 10 nM final concentration. Format: cell-based. To be noted: for Emax: read-out: hAT1R Antagonist Efficacy Antag (%) Ave; for pIC50: read-out: hAT1R Antagonist IC50 Ave. On the technique in general: Calcium assays in cells follow changes in intracellular calcium, usually with a dye or a luminescent sensor.

For orientation: pIC50 means −log10 of the IC50, conventionally taken in molar units. With `CNCC(=O)N[C@@H](CCCNC(=N)N)C(=O)N[C@H](C(=O)N[C@@H](Cc1ccc(O)cc1)C(=O)N[C@H](C(=O)N[C@@H](Cc1c[nH]cn1)C(=O)N1CCC[C@H]1C(=O)N[C@H](Cc1ccccc1-c1ccccc1)C(=O)O)C1CCCCC1)C(C)C` [Compound 36, Sar-Arg-Val-Tyr-Chg-His-Pro-(D-Phe(2-Ph))—OH] (HELM PEPTIDE1{[Sar].R.V.Y.[O=C([C@@H](N[*:1])C1CCCCC1)[*:2]].H.P.[O=C(O)[C@@H](Cc1ccccc1-c1ccccc1)N[*:1]]}$$$$V2.0), the Emax in test [1] amounted to 13%. For the same molecule, in test [2], the Emax was 100% and the pIC50 is 7.59.
`CC(C)[C@H](NC(=O)[C@H](CCCNC(=N)N)NC(=O)CNC[C@H](O)[C@@H](O)[C@H](O)[C@H](O)CO)C(=O)N[C@@H](Cc1ccc(O)cc1)C(=O)N[C@H](C(=O)N[C@@H](Cc1c[nH]cn1)C(=O)N1CCC[C@H]1C(=O)N[C@H](Cc1cccc2ccccc12)C(=O)O)C(C)C` [Compound 37, Glac-Arg-Val-Tyr-Val-His-Pro-(D-1Nal)-OH] (HELM PEPTIDE1{[O=C(CNC[C@H](O)[C@@H](O)[C@H](O)[C@H](O)CO)[*:2]].R.V.Y.V.H.P.[O=C(O)[C@@H](Cc1cccc2ccccc12)N[*:1]]}$$$$V2.0): the values for the Emax in test [1] and in test [2] were 7% and 99%, respectively. Further, the pIC50 in test [2] is 7.71.
Regarding `CC(C)[C@H](NC(=O)[C@H](CCCNC(=N)N)NC(=O)CNC[C@H](O)[C@@H](O)[C@H](O)[C@H](O)CO)C(=O)N[C@@H](Cc1ccc(O)cc1)C(=O)N[C@H](C(=O)N[C@@H](Cc1c[nH]cn1)C(=O)N1CCC[C@H]1C(=O)N[C@H](Cc1csc2ccccc12)C(=O)O)C(C)C` [Compound 38, Glac-Arg-Val-Tyr-Val-His-Pro-(D-(3-benzothienyl)alanine)-OH] (HELM PEPTIDE1{[O=C(CNC[C@H](O)[C@@H](O)[C@H](O)[C@H](O)CO)[*:2]].R.V.Y.V.H.P.[O=C(O)[C@@H](Cc1csc2ccccc12)N[*:1]]}$$$$V2.0), the Emax was determined as 5% in test [1] and 101% in test [2]. The pIC50 in test [2] was 7.73.
For `CC(C)[C@H](NC(=O)[C@H](CCCNC(=N)N)NC(=O)CNC[C@H](O)[C@@H](O)[C@H](O)[C@H](O)CO)C(=O)N[C@@H](Cc1ccc(O)cc1)C(=O)N[C@H](C(=O)N[C@@H](Cc1c[nH]cn1)C(=O)N1CCC[C@H]1C(=O)N[C@H](Cc1ccccc1-c1ccccc1)C(=O)O)C(C)C` [Compound 39, Glac-Arg-Val-Tyr-Val-His-Pro-(D-Phe(2-Ph))—OH] (HELM PEPTIDE1{[O=C(CNC[C@H](O)[C@@H](O)[C@H](O)[C@H](O)CO)[*:2]].R.V.Y.V.H.P.[O=C(O)[C@@H](Cc1ccccc1-c1ccccc1)N[*:1]]}$$$$V2.0) the same measures were 8%, 101% and 7.57.
As to `CC(C)[C@H](NC(=O)[C@H](CCCNC(=N)N)NC(=O)CNC[C@H](O)[C@@H](O)[C@H](O)[C@H](O)CO)C(=O)N[C@@H](Cc1ccc(O)cc1)C(=O)N[C@H](C(=O)N[C@@H](Cc1c[nH]cn1)C(=O)N1CCC[C@H]1C(=O)N[C@H](Cc1cccc2ccccc12)C(=O)O)C1CCCCC1` [Compound 40, Glac-Arg-Val-Tyr-Chg-His-Pro-(D-1Nal)-OH] (H-[X1]RVY[Chg]HP[d1Nal]-OH), the Emax in test [1] is 5%. In test [2], the Emax was 101% and the pIC50 is 7.66.
In the case of `CC(C)[C@H](NC(=O)[C@H](CCCNC(=N)N)NC(=O)CNC[C@H](O)[C@@H](O)[C@H](O)[C@H](O)CO)C(=O)N[C@@H](Cc1ccc(O)cc1)C(=O)N[C@H](C(=O)N[C@@H](Cc1c[nH]cn1)C(=O)N1CCC[C@H]1C(=O)N[C@H](Cc1csc2ccccc12)C(=O)O)C1CCCCC1` [Compound 41, Glac-Arg-Val-Tyr-Chg-His-Pro-(D-(3-benzothienyl)alanine)-OH] (H-[X1]RVY[Chg]HP[dBta]-OH), the values for the Emax in test [1] and in test [2] were 5% and 101%, respectively. Further, in test [2], the pIC50 is 7.72.
